Reference: patent US20100285959A1, “HERBICIDAL MIXTURES” (priority 2006, published 2010)

Tests used:
galium (GALAP) = test: Test 24 growth chamber, postemergence; assay type: in vivo, Galium aparine; conditions: 17 DAA
Description: (§1) Plants were treated postemergence at the 2-4 leaf growth stage, and each treatment was replicated three times. […] Plants were watered as needed. […] Results for barley and wheat are the means across varieties of the three replicates, and results for the weeds are the means of the three replicates.

kochia (KCHSC) = test: Test 24 growth chamber, postemergence; assay type: in vivo, Kochia scoparia; conditions: 17 DAA
Description: as §1

winter wheat (TRZAW) = test: Test 27 field trial, postemergence; assay type: in vivo, Triticum aestivum; parameters: scale not given here
Description: Wheat seeds (cv. ‘Custer’) were planted in late fall season in a clay loam soil. Plots were 9 m long by 1.8 m wide. The field was managed using conventional tillage practices. […] All treatments also included a surfactant. […] Results are the means of the three replicates.

barnyardgrass (ECHCG) = test: Test 28 greenhouse, postemergence; assay type: in vivo, Echinochloa crus-galli; conditions: 26 DAA
Description: A greenhouse test was conducted to evaluate the effects on the plant species corn (ZEAMD, Zea mays ssp. indentata), sorghum (SORVU, Sorghum vulgare L.), dry-seeded rice (ORYSA, Oryza sativa L.), wheat (TRZAW, Triticum aestivum L.), ivyleaf morningglory (IPOHE, Ipomoea hederacea (L.) JACQ.), and barnyardgrass (ECHCG, Echinochloa crus-galli (L.) P. BEAUV.), of mixtures of Compound 2 with isoxadifen-ethyl. Corn, sorghum, rice, wheat, ivyleaf morningglory and barnyardgrass seeds were planted in RediEarth, a commercial potting medium. […] Corn plants were treated postemergence at the V2 growth stage, and sorghum, rice, wheat, ivyleaf morningglory, and barnyardgrass plants were treated postemergence at the 3-leaf stage. […] Each treatment was replicated three times. […] Plants were watered as needed.

[1] = tested on: Pennsylvania smartweed (POLPY); test: Test 26 field trial, postemergence; assay type: in vivo, Polygonum pensylvanicum
Description: Corn seeds (hybrid ‘Pioneer 31G96’) were planted in mid spring season, 3.8 cm deep in a silt loam soil having 2% organic matter and a pH of 6.6. Plots were 6.1 m long by 3.0 m wide with rows spaced 76 cm apart. Seeds were spaced 15 cm apart within the rows. The field was managed using conventional tillage practices. […] All treatments also included a surfactant. […] Some of the weed species could not be evaluated at every timing. […] Results are the means of the three replicates.

giant foxtail (SETFA) = test: Test 25 field trial, postemergence, growth as percent of control; assay type: in vivo, Setaria faberi
Description: Corn seeds (hybrid ‘Pioneer 31G96 RR’) were planted in mid spring season, 3.8 cm deep in a clay loam soil having 2% organic matter and a pH of 6.6. Plots were 6.1 m long by 3.0 m wide with rows spaced 76 cm apart. Seeds were spaced 15 cm apart within the rows. The field was managed using conventional tillage practices. […] Giant ragweed and Pennsylvania smartweed could only be evaluated 14 days after application. […] Results are the means of the three replicates. This growth inhibition data was converted to results in the form of “plant growth as a percent of control plant growth” using the calculation “100 minus growth inhibition”.
When this form of Colby's Equation is used, if the observed effects on weeds are less than the expected values, the mixture is synergistic.

velvetleaf (ABUTH) = test: Test 15 greenhouse, postemergence; conditions: 12 DAA
field violet (VIOAR) = test: Test 24 growth chamber, postemergence; assay type: in vivo, Viola arvensis; conditions: 17 DAA
Description: as §1

SMILES: COC(=O)c1nc(C2CC2)nc(N)c1Cl [Compound 2, methyl 6-amino-5-chloro-2-cyclopropyl-4-pyrimidinecarboxylate]
- GALAP Obs (scale 0 to 100) (galium (GALAP); Cpd 2 4 g a.i./ha): 73
- GALAP Obs (scale 0 to 100) (galium (GALAP); Cpd 2 8 g a.i./ha): 75
- GALAP Obs (scale 0 to 100) (galium (GALAP); Cpd 2 16 g a.i./ha): 87
- KCHSC Obs (scale 0 to 100) (kochia (KCHSC); Cpd 2 4 g a.i./ha): 65
- KCHSC Obs (scale 0 to 100) (kochia (KCHSC); Cpd 2 8 g a.i./ha): 77
- KCHSC Obs (scale 0 to 100) (kochia (KCHSC); Cpd 2 16 g a.i./ha): 88
- TRZAW Obs (winter wheat (TRZAW); 16 DAA, 15 g a.i./ha): 2
- TRZAW Obs (winter wheat (TRZAW); 16 DAA, 30 g a.i./ha): 10
- TRZAW Obs (winter wheat (TRZAW); 16 DAA, 45 g a.i./ha): 17
- TRZAW Obs (winter wheat (TRZAW); 28 DAA, 15 g a.i./ha): 0
- TRZAW Obs (winter wheat (TRZAW); 28 DAA, 30 g a.i./ha): 12
- TRZAW Obs (winter wheat (TRZAW); 28 DAA, 45 g a.i./ha): 25
- TRZAW Obs (winter wheat (TRZAW); 49 DAA, 15 g a.i./ha): 3
- TRZAW Obs (winter wheat (TRZAW); 49 DAA, 30 g a.i./ha): 17
- TRZAW Obs (winter wheat (TRZAW); 49 DAA, 45 g a.i./ha): 35
- ECHCG Obs (barnyardgrass (ECHCG); Cpd 2 32 g a.i./ha): 83
- ECHCG Obs (barnyardgrass (ECHCG); Cpd 2 64 g a.i./ha): 87
- POLPY Obs ([1]; 14 DAA, 60 g a.i./ha): 100
- POLPY Obs ([1]; 28 DAA, 30 g a.i./ha): 20
- POLPY Obs ([1]; 28 DAA, 45 g a.i./ha): 62
- POLPY Obs ([1]; 28 DAA, 60 g a.i./ha): 75
- SETFA Obs (percent of control) (giant foxtail (SETFA); Cpd 2 15 g a.i./ha, 14 DAA): 93%
- SETFA Obs (percent of control) (giant foxtail (SETFA); Cpd 2 15 g a.i./ha, 28 DAA): 98%
- SETFA Obs (percent of control) (giant foxtail (SETFA); Cpd 2 15 g a.i./ha, 56 DAA): 100%
- SETFA Obs (percent of control) (giant foxtail (SETFA); Cpd 2 30 g a.i./ha, 14 DAA): 85%
- SETFA Obs (percent of control) (giant foxtail (SETFA); Cpd 2 30 g a.i./ha, 28 DAA): 88%
- SETFA Obs (percent of control) (giant foxtail (SETFA); Cpd 2 30 g a.i./ha, 56 DAA): 80%
- SETFA Obs (percent of control) (giant foxtail (SETFA); Cpd 2 45 g a.i./ha, 14 DAA): 73%
- SETFA Obs (percent of control) (giant foxtail (SETFA); Cpd 2 45 g a.i./ha, 28 DAA): 80%
- SETFA Obs (percent of control) (giant foxtail (SETFA); Cpd 2 45 g a.i./ha, 56 DAA): 83%
- Obs response, scale 0 to 100 (velvetleaf (ABUTH); 15 g a.i./ha): 31
- Obs response, scale 0 to 100 (velvetleaf (ABUTH); 30 g a.i./ha): 38
- Obs response, scale 0 to 100 (velvetleaf (ABUTH); 45 g a.i./ha): 61
- VIOAR Obs (scale 0 to 100) (field violet (VIOAR); Cpd 2 4 g a.i./ha): 47
- VIOAR Obs (scale 0 to 100) (field violet (VIOAR); Cpd 2 8 g a.i./ha): 62
- VIOAR Obs (scale 0 to 100) (field violet (VIOAR); Cpd 2 16 g a.i./ha): 72
